Measured values published in ChEMBL document CHEMBL1821675, “The selective P-TEFb inhibitor CAN508 targets angiogenesis” (Eur J Med Chem, 2011).
Activity calls are given as the source filed them. The calls are words filed in the database; no cut-off is given here.

Assays:
[1] = Inhibition of AMPK assessed as residual activity at 10 uM by radioactivity assay in presence of 50 uM ATP
[2] = molecular target: Misshapen-like kinase 1 (Homo sapiens) (UniProt Q8N4C8); assay: Inhibition of MINK1 assessed as residual activity at 10 uM by radioactivity assay in presence of 50 uM ATP
A498 = assay: Cytotoxicity against human A498 cells; type: functional
HUVEC = assay: Antiangiogenic activity against HUVEC cells assessed as inhibition of VEGF-induced cell migration-associated wound closure after 16 hrs by microscopic analysis; type: functional, cell-based; conditions: Homo sapiens
HOP-92 = assay: Cytotoxicity against human HOP92 cells; type: functional
SN12C = assay: Cytotoxicity against human SN12C cells; type: functional
T47D = assay: Cytotoxicity against human T47D cells; type: functional
[3] = molecular target: Cyclin-dependent kinase 9 (Homo sapiens) (UniProt P50750); assay: Inhibition of CDK9-catalyzed RNA polymerase 2 phosphorylation at Ser2 in human HMEC1 cells after 2 hrs by immunoblotting; type: cell-based
[4] = molecular target: Serine/threonine-protein kinase BRSK1 (Homo sapiens) (UniProt Q8TDC3); assay: Inhibition of BRSK1 assessed as residual activity at 10 uM by radioactivity assay in presence of 20 uM ATP
[5] = molecular target: Mitogen-activated protein kinase kinase kinase 11 (Homo sapiens) (UniProt Q16584); assay: Inhibition of MLK3 assessed as residual activity at 10 uM by radioactivity assay in presence of 20 uM ATP
[6] = molecular target: RAC-beta serine/threonine-protein kinase (Homo sapiens) (UniProt P31751); assay: Inhibition of PKBbeta assessed as residual activity at 10 uM by radioactivity assay in presence of 50 uM ATP
[7] = molecular target: Rho-associated protein kinase 2 (Homo sapiens) (UniProt O75116); assay: Inhibition of ROCK2 assessed as residual activity at 10 uM by radioactivity assay in presence of 20 uM ATP
Chain of Rho-associated protein kinase 2 (Homo sapiens) (O75116 whole entry, looked up): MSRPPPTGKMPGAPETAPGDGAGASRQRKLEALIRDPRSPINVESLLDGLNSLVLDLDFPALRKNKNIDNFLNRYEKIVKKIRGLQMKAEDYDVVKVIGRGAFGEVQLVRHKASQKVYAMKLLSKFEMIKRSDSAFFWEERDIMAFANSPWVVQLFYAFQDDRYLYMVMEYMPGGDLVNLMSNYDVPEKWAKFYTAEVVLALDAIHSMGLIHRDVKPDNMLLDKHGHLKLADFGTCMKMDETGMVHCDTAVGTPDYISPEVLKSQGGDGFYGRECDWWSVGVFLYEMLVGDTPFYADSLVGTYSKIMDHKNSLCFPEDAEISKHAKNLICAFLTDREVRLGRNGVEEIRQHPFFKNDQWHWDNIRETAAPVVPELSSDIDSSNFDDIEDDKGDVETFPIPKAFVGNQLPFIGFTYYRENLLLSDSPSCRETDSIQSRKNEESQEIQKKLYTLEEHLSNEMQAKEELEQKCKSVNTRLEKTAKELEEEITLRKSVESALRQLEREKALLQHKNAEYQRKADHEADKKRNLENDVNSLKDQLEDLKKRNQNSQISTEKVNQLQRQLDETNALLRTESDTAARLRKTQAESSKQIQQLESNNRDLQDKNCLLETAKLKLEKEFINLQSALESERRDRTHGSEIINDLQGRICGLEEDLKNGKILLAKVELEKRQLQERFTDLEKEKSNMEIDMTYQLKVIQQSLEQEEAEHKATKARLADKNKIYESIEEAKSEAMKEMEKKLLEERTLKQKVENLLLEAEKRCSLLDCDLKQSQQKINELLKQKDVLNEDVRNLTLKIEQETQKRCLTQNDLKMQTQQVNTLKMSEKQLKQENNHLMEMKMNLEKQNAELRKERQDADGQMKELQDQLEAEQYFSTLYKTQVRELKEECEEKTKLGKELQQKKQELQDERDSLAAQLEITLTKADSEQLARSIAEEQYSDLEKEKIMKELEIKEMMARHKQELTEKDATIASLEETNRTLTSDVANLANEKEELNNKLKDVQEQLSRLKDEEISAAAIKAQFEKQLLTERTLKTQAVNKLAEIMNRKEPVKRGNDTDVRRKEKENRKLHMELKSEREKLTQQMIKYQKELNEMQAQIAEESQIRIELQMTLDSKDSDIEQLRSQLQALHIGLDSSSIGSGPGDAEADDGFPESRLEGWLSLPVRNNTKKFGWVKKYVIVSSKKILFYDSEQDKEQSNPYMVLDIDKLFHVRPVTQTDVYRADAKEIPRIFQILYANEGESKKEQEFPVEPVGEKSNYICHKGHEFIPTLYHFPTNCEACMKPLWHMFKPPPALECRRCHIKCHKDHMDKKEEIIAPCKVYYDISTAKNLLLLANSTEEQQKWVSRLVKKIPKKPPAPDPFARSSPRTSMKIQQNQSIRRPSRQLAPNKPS

UACC-62 = assay: Cytotoxicity against human UACC62 cells; type: functional
[8] = Antiproliferative activity against HMEC1 cells assessed as decrease in cell viability at 10 to 40 uM within 72 hrs by calcein AM staining-based fluorescence assay; conditions: human, hmec-1, 72 h
OVCAR-5 = assay: Cytotoxicity against human OVCAR5 cells; type: functional
[9] = molecular target: Mitogen-activated protein kinase 12 (Homo sapiens) (UniProt P53778); assay: Inhibition of p38-gamma MAPK assessed as residual activity at 10 uM by radioactivity assay in presence of 5 uM ATP
[10] = molecular target: Interleukin-1 receptor-associated kinase 4 (Homo sapiens) (UniProt Q9NWZ3); assay: Inhibition of IRAK4 assessed as residual activity at 10 uM by radioactivity assay in presence of 20 uM ATP
Chain of Interleukin-1 receptor-associated kinase 4 (Homo sapiens) (Q9NWZ3 whole entry): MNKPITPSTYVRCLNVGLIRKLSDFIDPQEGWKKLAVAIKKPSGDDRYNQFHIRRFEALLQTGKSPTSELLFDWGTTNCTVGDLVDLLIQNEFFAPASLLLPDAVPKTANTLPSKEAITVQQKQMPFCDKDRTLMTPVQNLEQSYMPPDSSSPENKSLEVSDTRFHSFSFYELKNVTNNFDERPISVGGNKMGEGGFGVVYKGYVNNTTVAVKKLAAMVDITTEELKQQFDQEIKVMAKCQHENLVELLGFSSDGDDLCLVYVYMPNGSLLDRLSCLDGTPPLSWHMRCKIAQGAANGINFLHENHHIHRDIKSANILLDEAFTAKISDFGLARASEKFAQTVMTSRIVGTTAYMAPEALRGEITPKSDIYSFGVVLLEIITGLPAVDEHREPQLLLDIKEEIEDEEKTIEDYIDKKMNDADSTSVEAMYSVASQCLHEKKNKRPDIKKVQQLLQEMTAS

NCI-H23 = assay: Cytotoxicity against human NCI-H23 cells; type: functional
[11] = molecular target: Homeodomain-interacting protein kinase 2 (Homo sapiens) (UniProt Q9H2X6); assay: Inhibition of HIPK2 assessed as residual activity at 10 uM by radioactivity assay in presence of 5 uM ATP
Chain of Homeodomain-interacting protein kinase 2 (Homo sapiens) (Q9H2X6 whole entry, looked up): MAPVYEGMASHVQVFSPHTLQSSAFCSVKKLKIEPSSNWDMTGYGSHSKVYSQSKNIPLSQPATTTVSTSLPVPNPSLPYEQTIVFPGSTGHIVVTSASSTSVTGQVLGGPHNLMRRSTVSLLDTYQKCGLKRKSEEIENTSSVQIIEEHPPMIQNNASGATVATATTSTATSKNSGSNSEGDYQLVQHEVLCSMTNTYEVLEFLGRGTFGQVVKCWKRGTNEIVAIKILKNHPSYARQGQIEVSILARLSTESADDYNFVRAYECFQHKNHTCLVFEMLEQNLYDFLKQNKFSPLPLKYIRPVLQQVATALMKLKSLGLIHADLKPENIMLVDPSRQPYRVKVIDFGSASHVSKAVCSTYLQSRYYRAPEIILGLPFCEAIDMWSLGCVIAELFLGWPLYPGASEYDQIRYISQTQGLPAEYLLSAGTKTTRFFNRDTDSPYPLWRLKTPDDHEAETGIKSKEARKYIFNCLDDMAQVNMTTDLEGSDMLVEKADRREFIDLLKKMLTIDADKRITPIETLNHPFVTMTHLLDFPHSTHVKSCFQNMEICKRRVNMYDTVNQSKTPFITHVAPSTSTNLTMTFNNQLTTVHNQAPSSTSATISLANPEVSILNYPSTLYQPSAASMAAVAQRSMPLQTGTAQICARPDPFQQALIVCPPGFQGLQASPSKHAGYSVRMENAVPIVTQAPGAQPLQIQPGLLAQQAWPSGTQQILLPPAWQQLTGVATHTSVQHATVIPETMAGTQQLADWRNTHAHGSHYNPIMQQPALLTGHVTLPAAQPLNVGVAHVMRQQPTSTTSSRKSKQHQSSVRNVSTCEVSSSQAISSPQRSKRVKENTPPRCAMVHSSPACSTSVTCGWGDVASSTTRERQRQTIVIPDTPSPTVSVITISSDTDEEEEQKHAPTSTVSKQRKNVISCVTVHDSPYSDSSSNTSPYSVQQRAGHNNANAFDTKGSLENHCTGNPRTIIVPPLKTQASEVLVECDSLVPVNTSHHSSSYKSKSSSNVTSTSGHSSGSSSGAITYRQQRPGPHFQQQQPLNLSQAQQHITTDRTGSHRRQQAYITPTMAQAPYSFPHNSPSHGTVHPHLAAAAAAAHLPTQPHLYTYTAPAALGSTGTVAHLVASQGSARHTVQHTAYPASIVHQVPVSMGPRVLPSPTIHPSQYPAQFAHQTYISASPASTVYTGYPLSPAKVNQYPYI

[12] = Antiangiogenic activity in VEGF-stimulated HMEC1 assessed as reduction in total length of tube at 40 uM after 16 hrs by photographic analysis; type: functional, Homo sapiens, HMEC-1; set-up: scale not given: the % may be the effect or the level left
OVCAR-3 = assay: Cytotoxicity against human OVCAR3 cells; type: functional
[13] = Antiproliferative activity against HMEC1 cells assessed as decrease in cell viability at >50 uM within 72 hrs by calcein AM staining-based fluorescence assay; conditions: human, hmec-1, 72 h
RPMI-8226 = assay: Cytotoxicity against human RPMI8226 cells; type: functional
HMEC-1 = assay: Inhibition of RNA synthesis in human HMEC1 cells assessed as decrease in [3H] Uridine incorporation after 2 hrs by scintillation counting; type: functional, cell-based
[14] = molecular target: Serine/threonine-protein kinase PAK 5 (Homo sapiens) (UniProt Q9P286); assay: Inhibition of PAK5 assessed as residual activity at 10 uM by radioactivity assay in presence of 20 uM ATP
[15] = molecular target: Fibroblast growth factor receptor 1 (Homo sapiens) (UniProt P11362); assay: Inhibition of FGF-R1 assessed as residual activity at 10 uM by radioactivity assay in presence of 20 uM ATP
[16] = molecular target: SRSF protein kinase 1 (Homo sapiens) (UniProt Q96SB4); assay: Inhibition of SRPK1 assessed as residual activity at 10 uM by radioactivity assay in presence of 50 uM ATP
[17] = molecular target: Mitogen-activated protein kinase kinase kinase kinase 2 (Homo sapiens) (UniProt Q12851); assay: Inhibition of GCK assessed as residual activity at 10 uM by radioactivity assay in presence of 20 uM ATP
Chain of Mitogen-activated protein kinase kinase kinase kinase 2 (Homo sapiens) (Q12851 whole entry): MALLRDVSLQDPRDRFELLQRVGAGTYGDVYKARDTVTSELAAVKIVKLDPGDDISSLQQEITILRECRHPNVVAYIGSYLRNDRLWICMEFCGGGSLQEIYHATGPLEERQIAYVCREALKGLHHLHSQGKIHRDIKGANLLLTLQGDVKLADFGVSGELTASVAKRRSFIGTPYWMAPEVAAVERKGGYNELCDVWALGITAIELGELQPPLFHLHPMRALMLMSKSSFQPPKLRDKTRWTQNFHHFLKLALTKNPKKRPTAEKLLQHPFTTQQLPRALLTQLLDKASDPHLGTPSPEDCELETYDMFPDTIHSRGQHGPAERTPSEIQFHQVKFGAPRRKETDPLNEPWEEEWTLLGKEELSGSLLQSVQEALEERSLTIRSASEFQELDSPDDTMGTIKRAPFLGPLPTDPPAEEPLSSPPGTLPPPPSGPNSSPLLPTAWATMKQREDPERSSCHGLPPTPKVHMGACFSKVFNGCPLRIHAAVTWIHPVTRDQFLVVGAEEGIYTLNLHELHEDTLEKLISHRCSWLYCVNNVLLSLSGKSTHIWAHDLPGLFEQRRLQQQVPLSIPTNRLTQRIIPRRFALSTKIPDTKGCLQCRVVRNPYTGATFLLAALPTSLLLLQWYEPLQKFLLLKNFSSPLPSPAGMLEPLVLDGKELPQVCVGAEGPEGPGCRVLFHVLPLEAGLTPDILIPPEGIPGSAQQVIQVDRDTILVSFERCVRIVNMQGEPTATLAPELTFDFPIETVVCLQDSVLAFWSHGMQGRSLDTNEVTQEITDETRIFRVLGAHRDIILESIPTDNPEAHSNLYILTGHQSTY

LOX IMVI = assay: Cytotoxicity against human LOXIMVI cells; type: functional
SF-539 = assay: Cytotoxicity against human SF539 cells; type: functional
UO-31 = assay: Cytotoxicity against human UO31 cells; type: functional
[18] = molecular target: MAP kinase-activated protein kinase 2 (Homo sapiens) (UniProt P49137); assay: Inhibition of MAPKAP-K2 assessed as residual activity at 10 uM by radioactivity assay in presence of 20 uM ATP
MDA-MB-231 = assay: Decrease in VEGF expression in human MDA-MB-231 cells at >10 uM after 24 hrs by sandwich ELISA; type: functional, cell-based
[19] = Antiangiogenic activity in VEGF-stimulated HMEC1 assessed as reduction in median length of tube at 40 uM after 16 hrs by photographic analysis; type: functional, Homo sapiens, HMEC-1; set-up: scale not given: the % may be the effect or the level left
[20] = molecular target: Aurora kinase A (Homo sapiens) (UniProt O14965); assay: Inhibition of Aurora A assessed as residual activity at 10 uM by radioactivity assay in presence of 5 uM ATP
Chain of Aurora kinase A (Homo sapiens) (O14965 whole entry): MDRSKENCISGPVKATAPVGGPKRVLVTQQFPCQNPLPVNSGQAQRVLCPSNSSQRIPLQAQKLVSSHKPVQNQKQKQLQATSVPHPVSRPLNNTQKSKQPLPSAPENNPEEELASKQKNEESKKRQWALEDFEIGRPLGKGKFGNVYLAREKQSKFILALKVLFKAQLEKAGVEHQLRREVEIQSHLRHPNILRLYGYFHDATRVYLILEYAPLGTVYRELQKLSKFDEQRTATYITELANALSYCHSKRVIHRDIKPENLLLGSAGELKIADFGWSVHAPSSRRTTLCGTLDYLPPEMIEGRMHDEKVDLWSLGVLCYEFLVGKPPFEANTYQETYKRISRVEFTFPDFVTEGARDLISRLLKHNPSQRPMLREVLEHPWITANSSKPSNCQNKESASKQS

[21] = molecular target: Serine/threonine-protein kinase Chk1 (Homo sapiens) (UniProt O14757); assay: Inhibition of CHK1 assessed as residual activity at 10 uM by radioactivity assay in presence of 20 uM ATP
DU-145 = assay: Decrease in VEGF expression in human DU145 cells at >10 uM after 24 hrs by sandwich ELISA; type: functional, cell-based
MCF7 = assay: Decrease in VEGF expression in human MCF7 cells at >10 uM after 24 hrs by sandwich ELISA; type: functional, cell-based
ACHN = assay: Cytotoxicity against human ACHN cells; type: functional
HL-60(TB) = assay: Cytotoxicity against human HL-60(TB) cells; type: functional
[22] = molecular target: Mitogen-activated protein kinase kinase kinase 7 (Homo sapiens) (UniProt O43318); assay: Inhibition of TAK1 assessed as residual activity at 10 uM by radioactivity assay in presence of 5 uM ATP
Chain of Mitogen-activated protein kinase kinase kinase 7 (Homo sapiens) (O43318 whole entry): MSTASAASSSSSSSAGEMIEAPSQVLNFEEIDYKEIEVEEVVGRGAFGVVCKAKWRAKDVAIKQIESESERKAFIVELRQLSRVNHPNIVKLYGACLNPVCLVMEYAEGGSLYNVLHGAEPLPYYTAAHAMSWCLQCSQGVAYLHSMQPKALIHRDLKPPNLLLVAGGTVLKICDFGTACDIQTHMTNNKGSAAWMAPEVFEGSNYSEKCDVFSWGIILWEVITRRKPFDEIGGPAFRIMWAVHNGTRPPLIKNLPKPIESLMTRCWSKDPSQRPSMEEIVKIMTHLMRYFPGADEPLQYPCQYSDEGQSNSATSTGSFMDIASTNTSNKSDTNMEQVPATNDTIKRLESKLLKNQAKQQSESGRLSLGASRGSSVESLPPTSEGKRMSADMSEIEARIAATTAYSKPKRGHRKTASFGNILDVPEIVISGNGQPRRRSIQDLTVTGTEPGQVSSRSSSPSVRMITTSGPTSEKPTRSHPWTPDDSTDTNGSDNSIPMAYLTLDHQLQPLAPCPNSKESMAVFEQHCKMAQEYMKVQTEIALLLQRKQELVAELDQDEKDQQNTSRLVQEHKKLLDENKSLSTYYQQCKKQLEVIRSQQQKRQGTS

[23] = molecular target: Serine/threonine-protein kinase MARK1 (Homo sapiens) (UniProt Q9P0L2); assay: Inhibition of MARK1 assessed as residual activity at 10 uM by radioactivity assay in presence of 20 uM ATP
[24] = molecular target: Mitogen-activated protein kinase kinase kinase 1 (Homo sapiens) (UniProt Q13233); assay: Inhibition of MEKK1 assessed as residual activity at 10 uM by radioactivity assay in presence of 20 uM ATP

Compound: Nc1n[nH]c(N)c1/N=N/c1ccc(O)cc1
- Activity [1]: 82%
- Activity [2]: 29%
- GI50 (A498): 18.2 µM
- inhibition (HUVEC): Dose-dependent effect
- GI50 (HOP-92): 18.2 µM
- GI50 (SN12C): 23.3 µM
- GI50 (T47D): 14.2 µM
- inhibition [3]: Dose-dependent effect
- Activity [4]: 66%
- Activity [5]: 31%
- Activity [6]: 56%
- Activity [7]: 51%
- GI50 (UACC-62): 11 µM
- Activity [8]: Non-toxic
- GI50 (OVCAR-5): 23.5 µM
- Activity [9]: 50%
- Activity [10]: 58%
- GI50 (NCI-H23): 19.1 µM
- Activity [11]: 44%
- Activity [12]: 30%
- GI50 (OVCAR-3): 22.8 µM
- Activity [13]: Non-toxic
- GI50 (RPMI-8226): 14.4 µM
- IC50 (HMEC-1): 20 µM
- Activity [14]: 88%
- Activity [15]: 68%
- Activity [16]: 85%
- Activity [17]: 20%
- GI50 (LOX IMVI): 4.1 µM
- GI50 (SF-539): 13.2 µM
- GI50 (UO-31): 13.7 µM
- Activity [18]: 26%
- Activity (MDA-MB-231): Active
- Activity [19]: 50%
- Activity [20]: 107%
- Activity [21]: 98%
- Activity (DU-145): Active
- Activity (MCF7): Active
- GI50 (ACHN): 15.6 µM
- GI50 (HL-60(TB)): 6.4 µM
- Activity [22]: 53%
- Activity [23]: 72%
- Activity [24]: 100%
